Assay results: ChEMBL document CHEMBL5365517, “Molecular Design of Cyclic Peptides with Cell Membrane Permeability and Development of MDMX-p53 Inhibitor” (ACS Med Chem Lett, 2023)
Starred links: 1 amine or outer side, 2 acyl side, 3 side chain; linkers in the order of their positions; H or OH if unused. Non-standard residues stand in square brackets, D forms with d. Residues, ends and D or L forms follow the SMILES beside them. Ala(4-thiazolyl) = N[C@@H](Cc1cscn1)C(=O)O; Phe(4-Cl) = N[C@@H](Cc1ccc(Cl)cc1)C(=O)O; X1 = CCC(CC)C[C@@H](C(=O)[*:2])N(C)[*:1]; Phe(4-F) = N[C@@H](Cc1ccc(F)cc1)C(=O)O; NMeF = CN[C@@H](Cc1ccccc1)C(=O)O; NMeL = CN[C@@H](CC(C)C)C(=O)O; Ahp(2) = CCCCC[C@H](N)C(=O)O; Tle = CC(C)(C)[C@H](N)C(=O)O; hSer = N[C@@H](CCO)C(=O)O; NMeA = CN[C@@H](C)C(=O)O; dNMeA = CN[C@H](C)C(=O)O

Key:
[1] = Apparent permeability across apical to basolateral side in MDCK-II cells at 10 uM incubated for 2 hrs by LC/MS/MS analysis; assay type: ADME, cell-based, Canis lupus familiaris; settings: dog
[2] = biological target: T1, Protein Mdm4 (Homo sapiens, UniProt O15151); assay: Inhibition of N-terminal biotin-his-tagged MDMX (24 to 108 residues)(unknown origin) binding to p53 incubated for 1 hr by Alphascreen assay
T1 sequence (O15151 whole entry): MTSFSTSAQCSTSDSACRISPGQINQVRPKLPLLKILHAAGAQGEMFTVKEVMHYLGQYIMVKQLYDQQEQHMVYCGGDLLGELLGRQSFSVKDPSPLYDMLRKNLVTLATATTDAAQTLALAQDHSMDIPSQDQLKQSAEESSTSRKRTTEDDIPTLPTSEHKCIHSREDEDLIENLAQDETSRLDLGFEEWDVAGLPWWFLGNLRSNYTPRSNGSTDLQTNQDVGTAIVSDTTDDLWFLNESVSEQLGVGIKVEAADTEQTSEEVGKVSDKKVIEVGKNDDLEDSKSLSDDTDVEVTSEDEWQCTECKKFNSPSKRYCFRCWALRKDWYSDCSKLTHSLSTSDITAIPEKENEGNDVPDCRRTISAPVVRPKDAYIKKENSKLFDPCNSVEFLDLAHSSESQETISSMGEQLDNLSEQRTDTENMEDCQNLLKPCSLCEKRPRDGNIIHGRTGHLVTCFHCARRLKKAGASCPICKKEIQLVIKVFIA

Papp A→B at 2 h, 10 µM [1] [×10⁻⁶ cm/s]	IC50 [2] [nM]	Compound
0.8	70	CCCCC[C@@H]1NC(=O)[C@H](CC(C)C)N(C)C(=O)[C@H](Cc2ccc(F)cc2)NC(=O)[C@H](C)N(C)C(=O)[C@@H](C)N(C)C(=O)[C@H](Cc2cscn2)NC(=O)[C@H](C)N(C)C(=O)[C@H](CCOC)NC(=O)[C@H]2CCCN2C(=O)[C@H](CC(CC)CC)N(C)C1=O (cyclo([Ahp(2)][X1][dP][hSer](Me)[NMeA][Ala(4-thiazolyl)][dNMeA][NMeA][Phe(4-F)][NMeL]))
0.07	30	COCC[C@@H]1NC(=O)[C@H]2CCCN2C(=O)[C@H](Cc2ccccc2)N(C)C(=O)[C@H](Cc2ccc(Cl)cc2)NC(=O)[C@H](C(C)(C)C)NC(=O)[C@H](Cc2ccc(F)cc2)NC(=O)[C@H](C)N(C)C(=O)[C@@H](C)N(C)C(=O)[C@H](Cc2cscn2)NC(=O)[C@H](C)N(C)C1=O (cyclo([Ala(4-thiazolyl)][dNMeA][NMeA][Phe(4-F)][Tle][Phe(4-Cl)][NMeF][dP][hSer](Me)[NMeA]))
